The values that follow come from US20260265244A1, “HETEROCYCLIC COMPOUNDS AS STING ANTAGONISTS” (Boehringer Ingelheim International GmbH, priority 2022, published 2026).

The structures appear in SMILES notation.

This assay concerns STING inhibition in human whole blood (IFNα2α production). The assay can be described thus: Human whole blood assay (HWBA): cGAMP-stimulated IFNα2α production. The class given is cell-based. The conditions noted are these: Homo sapiens. As for the experimental part: For the detection of STING inhibition in physiological environment human whole blood was stimulated by the cyclic dinucleotide cGAMP. Pathway activity was monitored by measuring the IFNα2α production.
Assay method: Compounds were delivered as 10 mM DMSO solution and serial diluted and transferred to the 96-well Cell culture Plate (Corning #3595), prefilled with 20 μl OptiMEM (Gibco #11058-021) in each well, using an Echo acoustic dispenser. Typically, 8 concentrations were used with the highest concentration at 10 μM in the final assay volume followed by ~1:5 dilution steps. DMSO concentration was set to 0.1% in the final assay volume. The 96 well assay plate contained 9 test compounds, a reference compound and DMSO in control wells.
Collection of human whole blood from 3 or more healthy donors (male or female, no medication for 7 days, exception contraceptive and thyroxine) as Na-citrate blood (e.g. 3.8% in Monovettes from Sarstedt) is conducted in parallel. Whole blood was kept at room temperature for a maximum of 3 hours after collection until use in the assay.
160 μl of the whole blood samples were transferred to each well of the 96-well assay plates filled with compound/OptiMEM. All assay plates are prepared as duplicates with blood from different donors. Blood plates were kept at room temperature for 60 minutes and continuous shaking with 450 rpm, covered with the lid, but not sealed.
A 10× cGAMP assay solution was diluted from a 2 mM stock solution in 1×HBSS immediately before use at room temperature. 20 μl of the 10× cGAMP/HBSS were added to all compound and all high control wells, whereas HBSS only was added to all low control wells.
After covering assay plates with aera seals and the lid, blood plates were kept at room temperature for 30 minutes and continuous shaking with 450 rpm, followed by an overnight incubation of 22 h at 37° C. in the incubator, without shaking.
For the detection of IFNα-2α in human plasma, the biotinylated capture antibody (Antibody set IFNA2, Meso Scale Diagnostics #B21VH-3, including coating and capture antibody) was diluted 1:17.5 in Diluent 100 (Meso Scale Diagnostics #R50AA-4, according to the manufacturer. U-Plex MSD GOLD 96-well Small Spot Streptavidin SECTOR Plates (Meso Scale Diagnostics #L45SA-5) were coated with 25 μl diluted capture antibody. Coated plates were incubated for 60 min at room temperature under continuous shaking at 700 rpm. MSD IFNα-2α plates were washed three times with 150 μl wash buffer (1×HBSS, 0.05% Tween).
After blocking the plates with 100 μl block solution/well (1×HBSS with 0.2% Tween, 2% BSA) for 60 min at room temperature and continuous shaking at 700 rpm, plates were emptied as dry as possible by dumping just before continuing with the human plasma. Whole Blood assay plates were centrifuged at 1600 rpm for 10 minutes. 25 μl of supernatant was transferred with a pipetting robotics from each whole blood plate to the corresponding IFNα-2α plate. Plates were sealed with microplate seals and kept at room temperature again under continuous shaking at 700 rpm for two hours. Next MSD IFNα-2α plates were washed three times with 150 μl wash buffer (1×HBSS, 0.05% Tween), before adding 25 μl MSD SULFO-TAG IFNα-2α Antibody solution (1:100 diluted in Diluent 3 (Meso Scale Diagnostics #R50AP-2) to each well of the plates. Afterwards plates were sealed with microplate seals and kept at room temperature again under continuous shaking at 700 rpm for two hours. Finally MSD IFNα-2α plates were washed three times with 150 μl wash buffer (1×HBSS, 0.05% Tween). 150 μl 2×Read buffer was added to each well and plates were immediately measured with the MSD Sector S600 Reader using the vendor barcode.
Data evaluation and calculation: For data evaluation and calculation, % control calculation of each well was based on the mean of high (cGAMP stimulated control) and mean of low (unstimulated control) controls by using the following formula: […]

Broadly, the IC50 is the concentration that inhibits the measured activity by half. Lower therefore signals higher potency. In turn, `Cc1c(C(C)C)c(-c2cccc3nn(C[C@H](O)c4ccccc4)cc23)nn1-c1cc2cn(C)nc2[n+]([O-])c1C1CC1` [Example 50, 6-cyclopropyl-5-(3-{2-[(2R)-2-hydroxy-2-phenylethyl]-2H-indazol-4-yl}-5-methyl-4-(propan-2-yl)-1H-pyrazol-1-yl)-2-methyl-2H-pyrazolo[3,4-b]pyridin-7-ium-7-olate] came in with an IC50 of 160 nM.

`Cn1cc2cc(-c3nc(-c4cccc5nn(C[C@H](O)c6ccc(OCC7CCOCC7)cc6)cc45)c(C4CC4)n3C)c(C3CC3)nc2n1` [Example 68] yielded an IC50 of 350 nM.

As for `COCc1nc2nn(C)cc2cc1-n1nc(-c2cccc3nn(C[C@H](O)c4ccccc4)cc23)c(C(C)C)c1C` [Example 17, (1R)-2-(4-{1-[6-(methoxymethyl)-2-methyl-2H-pyrazolo[3,4-b]pyridin-5-yl]-5-methyl-4-(propan-2-yl)-1H-pyrazol-3-yl}-2H-indazol-2-yl)-1-phenylethan-1-ol], the IC50 turned out to be 81 nM.

`Cc1nc2nn(CC#N)cc2cc1-n1nc(-c2cccc3nn(C[C@H](O)c4ccccc4)cc23)c(C(C)C)c1C` [Example 98, 2-[5-(3-{2-[(2R)-2-hydroxy-2-phenylethyl]-2H-indazol-4-yl}-5-methyl-4-(propan-2-yl)-1H-pyrazol-1-yl)-6-methyl-2H-pyrazolo[3,4-b]pyridin-2-yl]acetonitrile]: half-maximal inhibition (IC50) required 31 nM.

As for `Cn1c(-c2cc3cn(CCCN4CCCC4=O)nc3nc2C2CC2)nc(-c2cccc3nn(C[C@H](O)c4ccccc4)cc23)c1C1CC1` [Example 28, 1-{3-[6-cyclopropyl-5-(5-cyclopropyl-4-{2-[(2R)-2-hydroxy-2-phenylethyl]-2H-indazol-4-yl}-1-methyl-1H-imidazol-2-yl)-2H-pyrazolo[3,4-b]pyridin-2-yl]propyl}pyrrolidin-2-one], the midpoint of inhibition, the IC50, lay at 110 nM.

Consider `Cc1c(C(C)C)c(-c2cccc3nn(C[C@H](O)c4ccccc4)cc23)nn1-c1cc2cn(C)nc2nc1C(C)O` (stereo partly drawn) [Example 19, (1R)-2-(4-{1-[6-(1-hydroxyethyl)-2-methyl-2H-pyrazolo[3,4-b]pyridin-5-yl]-5-methyl-4-(propan-2-yl)-1H-pyrazol-3-yl}-2H-indazol-2-yl)-1-phenylethan-1-ol], for which the IC50 came out at 82 nM.

For the compound `COc1ccc(Cn2cc3cc(-c4nc(-c5cccc6nn(C[C@H](O)c7ccccc7)cc56)c(C5CC5)n4C)c(C4CC4)nc3n2)cc1` [Example 9, (1R)-2-[4-(5-cyclopropyl-2-{6-cyclopropyl-2-[(4-methoxyphenyl)methyl]-2H-pyrazolo[3,4-b]pyridin-5-yl}-1-methyl-1H-imidazol-4-yl)-2H-indazol-2-yl]-1-phenylethan-1-ol], 63 nM corresponded to half-maximal inhibition (IC50).

Compound `CCO[C@@H](Cn1cc2c(-c3nn(-c4cc5cn(C)nc5nc4C)c(C)c3C(C)C)cccc2n1)c1ccccc1` [Example 30, 4-(1-{2,6-dimethyl-2H-pyrazolo[3,4-b]pyridin-5-yl}-5-methyl-4-(propan-2-yl)-1H-pyrazol-3-yl)-2-[(2R)-2-ethoxy-2-phenylethyl]-2H-indazole] displayed an IC50 of 110 nM.

As to `Cc1nc2nn(CCCCO)cc2cc1-n1nc(-c2cccc3nn(C[C@H](O)c4ccccc4)cc23)c(C(C)C)c1C` [Example 12, 4-[5-(3-{2-[(2R)-2-hydroxy-2-phenylethyl]-2H-indazol-4-yl}-5-methyl-4-(propan-2-yl)-1H-pyrazol-1-yl)-6-methyl-2H-pyrazolo[3,4-b]pyridin-2-yl]butan-1-ol], the IC50 came out at 71 nM.

For `CCn1cc2cc(-n3nc(-c4cccc5nn(C[C@H](O)c6ccccc6)cc45)c(C(C)C)c3C)c(C)nc2n1` [Example 100, (1R)-2-[4-(1-{2-ethyl-6-methyl-2H-pyrazolo[3,4-b]pyridin-5-yl}-5-methyl-4-(propan-2-yl)-1H-pyrazol-3-yl)-2H-indazol-2-yl]-1-phenylethan-1-ol], the IC50 was 37 nM.

The compound `CSc1nc2nn(C)cc2cc1-n1nc(-c2cccc3nn(C[C@H](O)c4ccccc4)cc23)c(C(C)C)c1C` [Example 20, (1R)-2-(4-{5-methyl-1-[2-methyl-6-(methylsulfanyl)-2H-pyrazolo[3,4-b]pyridin-5-yl]-4-(propan-2-yl)-1H-pyrazol-3-yl}-2H-indazol-2-yl)-1-phenylethan-1-ol] returned an IC50 of 84 nM.

Compound `CC(C)c1c(-c2cccc3nn(C[C@H](O)c4ccccc4)cc23)nc(-c2cc3cn(C)nc3nc2C(F)(F)F)n1C` [Example 57, (1R)-2-(4-{1-methyl-2-[2-methyl-6-(trifluoromethyl)-2H-pyrazolo[3,4-b]pyridin-5-yl]-5-(propan-2-yl)-1H-imidazol-4-yl}-2H-indazol-2-yl)-1-phenylethan-1-ol] displayed an IC50 of 230 nM.

Compound `CC(C)c1nc2nn(C)cc2cc1-c1nc(-c2cccc3nn(C[S@@+]([O-])c4ccccc4)cc23)c(C2CC2)n1C` [Example 22, 2-{[(S)-benzenesulfinyl]methyl}-4-{5-cyclopropyl-1-methyl-2-[2-methyl-6-(propan-2-yl)-2H-pyrazolo[3,4-b]pyridin-5-yl]-1H-imidazol-4-yl}-2H-indazole] had an IC50 of 86 nM.

`Cc1c(C(C)C)c(-c2cccc3nn(C[C@H](O)c4ccc(OCCN5CCOCC5)cc4)cc23)nn1-c1cc2cn(C)nc2nc1C1CC1` [Example 15, (1R)-2-[4-(1-{6-cyclopropyl-2-methyl-2H-pyrazolo[3,4-b]pyridin-5-yl}-5-methyl-4-(propan-2-yl)-1H-pyrazol-3-yl)-2H-indazol-2-yl]-1-{4-[2-(morpholin-4-yl)ethoxy]phenyl}ethan-1-ol] gave an IC50 of 77 nM.

Consider `Cc1c(C(C)C)c(-c2cccc3nn(C[C@H](O)c4ccccc4)cc23)nn1-c1cc2cn(C)nc2nc1C(C)(C)C` [Example 113, (1R)-2-[4-(1-{6-tert-butyl-2-methyl-2H-pyrazolo[3,4-b]pyridin-5-yl}-5-methyl-4-(propan-2-yl)-1 H-pyrazol-3-yl)-2H-indazol-2-yl]-1-phenylethan-1-ol], for which the IC50 turned out to be 1200 nM.

`Cc1nc2nn(Cc3ncnn3C)cc2cc1-n1nc(-c2cccc3nn(C[C@H](O)c4ccccc4)cc23)c(C(C)C)c1C` [Example 62, (1R)-2-[4-(5-methyl-1-{6-methyl-2-[(1-methyl-1H-1,2,4-triazol-5-yl)methyl]-2H-pyrazolo[3,4-b]pyridin-5-yl}-4-(propan-2-yl)-1H-pyrazol-3-yl)-2H-indazol-2-yl]-1-phenylethan-1-ol]: the half-maximal inhibitory concentration (IC50) came out at 300 nM.

Take `Cc1nc2nn(C)cc2cc1-n1nc(-c2cccc3nn(C[C@H](OCC(N)=O)c4ccccc4)cc23)c(C(C)C)c1C` [Example 108, 2-[(1R) -2-[4-(1-{2,6-dimethyl-2H-pyrazolo[3,4-b]pyridin-5-yl}-5-methyl-4-(propan-2-yl)-1H-pyrazol-3-yl)-2H-indazol-2-yl]-1-phenylethoxy]acetamide]: the IC50 amounted to 38 nM.

Consider `Cc1c(C(C)C)c(-c2cccc3nn(C[C@H](O)c4ccccc4)cc23)nn1-c1cc2cn(C)nc2nc1CC1CC1` [Example 54, (1R)-2-(4-{1-[6-(cyclopropylmethyl)-2-methyl-2H-pyrazolo[3,4-b]pyridin-5-yl]-5-methyl-4-(propan-2-yl)-1H-pyrazol-3-yl}-2H-indazol-2-yl)-1-phenylethan-1-ol], for which the IC50 is 200 nM.

For the compound `Cc1c(C(C)C)c(-c2cccc3nn(C[C@H](O)c4ccccc4)cc23)nn1-c1cc2cn(C)nc2nc1C1CCOCC1` [Example 73, (1R)-2-(4-{5-methyl-1-[2-methyl-6-(oxan-4-yl)-2H-pyrazolo[3,4-b]pyridin-5-yl]-4-(propan-2-yl)-1H-pyrazol-3-yl}-2H-indazol-2-yl)-1-phenylethan-1-ol], the IC50 came to 440 nM.
